Publication PMC11457037 (Journal of medicinal chemistry, 2023)

Target: T1, EV-D68 2A^pro (Enterovirus D68, UniProt A0A097BW19)
Test: FRET-based enzymatic assay
Type: biochemical
Conditions: not given

Compound	enzymatic inhibition, comparison in words
CC(C)(C)[C@H](NC(=O)CC12CC3CC(CC(C3)C1)C2)C(=O)N1C[C@@H]2CCC[C@@H]2[C@H]1C(=O)NC1(C(=O)C(=O)NC2CC2)CCC1 [Jun11806, (1S,3aR,6aS)-2-((S)-2-(2-((3S,5S,7S)-adamantan-1-yl)acetamido)-3,3-dimethylbutanoyl)-N-(1-(2-(cyclopropylamino)-2 oxoacetyl)cyclobutyl)octahydrocyclopenta[c]pyrrole-1-carboxamide]	less active compared to Jun11762
CC(C)(C)[C@H](NC(=O)CC12CC3CC(CC(C3)C1)C2)C(=O)N1C[C@@H]2CCC[C@@H]2[C@H]1C(=O)N[C@@H](Cc1c[nH]c2ccccc12)C(=O)C(=O)NC1CC1 [Jun11862, (1S,3aR,6aS)-2-((S)-2-(2-((3S,5S,7S)-adamantan-1-yl)acetamido)-3,3-dimethylbutanoyl)-N-((S)-4-(cyclopropylamino)-1-(1H-indol-3-yl)-3,4-dioxobutan-2-yl)octahydrocyclopenta[c]pyrrole-1-carboxamide]	comparable enzymatic inhibition and antiviral activity as Jun11385
CC(C)(C)[C@H](NC(=O)CC12CC3CC(CC(C3)C1)C2)C(=O)N1C[C@@H]2CCC[C@@H]2[C@H]1C(=O)N[C@H](C(=O)C(=O)NC1CC1)C1CCCC1 [Jun11808, (1S,3aR,6aS)-2-((S)-2-(2-((3S,5S,7S)-adamantan-1-yl)acetamido)-3,3-dimethylbutanoyl)-N-((S)-1-cyclopentyl-3-(cyclopropylamino)-2,3-dioxopropyl)octahydrocyclopenta[c]pyrrole-1-carboxamide]	comparable enzymatic inhibition and antiviral activity as Jun8861
CC(C)(C)[C@H](NC(=O)CC12CC3CC(CC(C3)C1)C2)C(=O)N1C[C@@H]2CCC[C@@H]2[C@H]1C(=O)N[C@@H](Cc1ccc(F)cc1)C(=O)C(=O)NC1CC1 [Jun11763, (1S,3aR,6aS)-2-((S)-2-(2-((3S,5S,7S)-adamantan-1-yl)acetamido)-3,3-dimethylbutanoyl)-N-((S)-4-(cyclopropylamino)-1-(4-fluorophenyl)-3,4-dioxobutan-2-yl)octahydrocyclo-penta[c]pyrrole-1-carboxamide]	comparable enzymatic inhibition and antiviral activity as Jun11385
CC(C)(C)[C@H](NC(=O)CC12CC3CC(CC(C3)C1)C2)C(=O)N1C[C@@H]2CCC[C@@H]2[C@H]1C(=O)NC1(C(=O)C(=O)NC2CC2)CCCCC1 [Jun11805, (1S,3aR,6aS)-2-((S)-2-(2-((3S,5S,7S)-adamantan-1-yl)acetamido)-3,3-dimethylbutanoyl)-N-(1-(2-(cyclopropylamino)-2-oxoacetyl)cyclohexyl)octahydrocyclopenta[c]pyrrole-1-carboxamide]	less active compared to Jun11762
CCC[C@H](NC(=O)[C@@H]1[C@H]2CCC[C@H]2CN1C(=O)[C@@H](NC(=O)OCc1ccccc1)C(C)(C)C)C(=O)C(=O)NC1CC1 [Jun7426, Benzyl ((S)-1-((1S,3aR,6aS)-1-(((S)-1-(cyclopropylamino)-1,2-dioxohexan-3-yl)carbamoyl)hexahydrocyclopenta[c]pyrrol-2(1H)-yl)-3,3-dimethyl-1-oxobutan-2-yl)carbamate]	reduced enzymatic inhibition and antiviral activity compared to telaprevir
CC(C)(C)[C@H](NC(=O)CC12CC3CC(CC(C3)C1)C2)C(=O)N1C[C@@H]2CCC[C@@H]2[C@H]1C(=O)N[C@H](C(=O)C(=O)NC1CC1)c1ccc(F)cc1 [Jun11861, (1S,3aR,6aS)-2-((S)-2-(2-((3S,5S,7S)-adamantan-1-yl)acetamido)-3,3-dimethylbutanoyl)-N-((S)-3-(cyclopropylamino)-1-(4-fluorophenyl)-2,3-dioxopropyl)octahydrocyclopenta[c]pyrrole-1-carboxamide]	less active
CCC[C@H](NC(=O)[C@@H]1[C@H]2CCC[C@H]2CN1C(=O)[C@@H](NC(=O)Cc1ccccc1)C(C)(C)C)C(=O)C(=O)NC1CC1 [Jun8681, (1S,3aR,6aS)-N-((S)-1-(cyclopropylamino)-1,2-dioxohexan-3-yl)-2-((S)-3,3-dimethyl-2-(2-phenylacetamido)butanoyl)octahydrocyclopenta[c]pyrrole-1-carboxamide]	reduced enzymatic inhibition and antiviral activity compared to telaprevir
CCC[C@H](NC(=O)[C@@H]1[C@H]2CCC[C@H]2CN1C(=O)[C@@H](NC(=O)/C=C/c1ccccc1)C(C)(C)C)C(=O)C(=O)NC1CC1 [Jun8813, (1S,3aR,6aS)-2-((S)-2-cinnamamido-3,3-dimethylbutanoyl)-N-((S)-1-(cyclopropylamino)-1,2-dioxohexan-3-yl)octahydrocyclopenta[c]pyrrole-1-carboxamide]	reduced enzymatic inhibition and antiviral activity compared to telaprevir
CC(C)(C)[C@H](NC(=O)CC12CC3CC(CC(C3)C1)C2)C(=O)N1C[C@@H]2CCC[C@@H]2[C@H]1C(=O)N[C@H](C(=O)C(=O)NC1CC1)c1ccccc1 [Jun11817, (1S,3aR,6aS)-2-((S)-2-(2-((3S,5S,7S)-adamantan-1-yl)acetamido)-3,3-dimethylbutanoyl)-N-((S)-3-(cyclopropylamino)-2,3-dioxo-1-phenylpropyl)octahydrocyclopenta[c]pyrrole-1-carboxamide]	less active
CCC[C@H](NC(=O)[C@@H]1[C@H]2CCC[C@H]2CN1C(=O)[C@@H](NC(=O)NC12CC3CC(CC(C3)C1)C2)C(C)(C)C)C(=O)C(=O)NC1CC1 [Jun1023, (1S)-2-((S)-2-(3-((3R,5R,7R)-adamantan-1-yl)ureido)-3,3-dimethylbutanoyl)-N-((S)-1-(cyclopropylamino)-1,2-dioxohexan-3-yl)octahydrocyclopenta[c]pyrrole-1-carboxamide]	reduced enzymatic inhibition
CC(C)[C@H](NC(=O)[C@@H]1[C@H]2CCC[C@H]2CN1C(=O)[C@@H](NC(=O)CC12CC3CC(CC(C3)C1)C2)C(C)(C)C)C(=O)C(=O)NC1CC1 [Jun11718, (1S,3aR,6aS)-2-((S)-2-(2-((3S,5S,7S)-adamantan-1-yl)acetamido)-3,3-dimethylbutanoyl)-N-((S)-1-(cyclopropylamino)-4-methyl-1,2-dioxopentan-3-yl)octahydrocyclopenta[c]pyrrole-1-carboxamide]	comparable enzymatic inhibition and antiviral activity as Jun8861

Tested on: EV-D68 US/MO/14-18947
Test: CPE assay with EV-D68 US/MO/14-18947 in R.D. cells
Type: cell-based, Enterovirus D68
Conditions: CPE assay EV-D68 US/MO/14-18947

Compound	antiviral activity, comparison in words
COC[C@H](NC(=O)[C@@H]1[C@H]2CCC[C@H]2CN1C(=O)[C@@H](NC(=O)CC12CC3CC(CC(C3)C1)C2)C(C)(C)C)C(=O)C(=O)NC1CC1 [Jun11672, (1S,3aR,6aS)-2-((S)-2-(2-((3S,5S,7S)-adamantan-1-yl)acetamido)-3,3-dimethylbutanoyl)-N-((S)-4-(cyclopropylamino)-1-methoxy-3,4-dioxobutan-2-yl)octahydrocyclopenta[c]pyrrole-1-carboxamide]	not active as Jun8861

Same assay, conditions: Enterovirus D, EVD68, RD, read-out: Antiviral EC50

EC50	Compound
160 to 750 nM	CCC[C@H](NC(=O)[C@@H]1[C@H]2CCC[C@H]2CN1C(=O)[C@@H](NC(=O)CC1CCCC1)C(C)(C)C)C(=O)C(=O)NC1CC1 [Jun971, (1S,3aR,6aS)-2-((S)-2-(2-cyclopentylacetamido)-3,3-dimethylbutanoyl)-N-((S)-1-(cyclopropylamino)-1,2-dioxohexan-3-yl)octahydrocyclopenta[c]pyrrole-1-carboxamide]
160 to 750 nM	CCC[C@H](NC(=O)[C@@H]1[C@H]2CCC[C@H]2CN1C(=O)[C@@H](NC(=O)CC1CCCCC1)C(C)(C)C)C(=O)C(=O)NC1CC1 [Jun8814, (1S,3aR,6aS)-2-((S)-2-(2-cyclohexylacetamido)-3,3-dimethylbutanoyl)-N-((S)-1-(cyclopropylamino)-1,2-dioxohexan-3-yl)octahydrocyclopenta[c]pyrrole-1-carboxamide]
160 to 750 nM	CCC[C@H](NC(=O)[C@@H]1[C@H]2CCC[C@H]2CN1C(=O)[C@@H](NC(=O)CC1CCC(F)(F)CC1)C(C)(C)C)C(=O)C(=O)NC1CC1 [Jun975, (1S,3aR,6aS)-N-((S)-1-(cyclopropylamino)-1,2-dioxohexan-3-yl)-2-((S)-2-(2-(4,4-difluorocyclohexyl)acetamido)-3,3-dimethylbutanoyl)octahydrocyclopenta[c]pyrrole-1-carboxamide]

Tested on: EV-D68
Test: not given
Conditions: respiratory and neurological disease mouse models; cited from earlier work

Compound	therapeutic efficacy in EV-D68 mouse models
Cc1cc(CCCOc2c(C)cc(-c3noc(C(F)(F)F)n3)cc2C)on1 [pleconaril]	none of these antivirals showed therapeutic efficacy
CC(C)S(=O)(=O)n1c(N)nc2ccc(/C(=N/O)c3ccccc3)cc21 [enviroxime]	none of these antivirals showed therapeutic efficacy
CCOC(=O)/C=C/[C@H](C[C@@H]1CCNC1=O)NC(=O)[C@@H](CC(=O)[C@@H](NC(=O)c1cc(C)on1)C(C)C)Cc1ccc(F)cc1 [rupintrivir]	none of these antivirals showed therapeutic efficacy
CCOC(=O)c1ccc(OCCC2CCN(c3ccc(C)nn3)CC2)cc1 [pirodavir]	none of these antivirals showed therapeutic efficacy
NC(=O)c1ncn([C@@H]2O[C@H](CO)[C@@H](O)[C@H]2O)n1 [ribavirin]	none of these antivirals showed therapeutic efficacy

Target: T1, EV-D68 2A^pro
Test: Enzyme kinetic studies
Type: biochemical
Conditions: from fitting of kinetic curves

Mode of inhibition of EV-D68 2A^pro	Compound
reversible binding	CC(C)(C)[C@H](NC(=O)CC12CC3CC(CC(C3)C1)C2)C(=O)N1C[C@@H]2CCC[C@@H]2[C@H]1C(=O)N[C@H](C(=O)C(=O)NC1CC1)C1CCCC1 [Jun11808, (1S,3aR,6aS)-2-((S)-2-(2-((3S,5S,7S)-adamantan-1-yl)acetamido)-3,3-dimethylbutanoyl)-N-((S)-1-cyclopentyl-3-(cyclopropylamino)-2,3-dioxopropyl)octahydrocyclopenta[c]pyrrole-1-carboxamide]
reversible binding	CC(C)(C)[C@H](NC(=O)CC12CC3CC(CC(C3)C1)C2)C(=O)N1C[C@@H]2CCC[C@@H]2[C@H]1C(=O)N[C@H](C=O)Cc1ccc(F)cc1 [Jun11707, (1S,3aR,6aS)-2-((S)-2-(2-((3S,5S,7S)-adamantan-1-yl)acetamido)-3,3-dimethylbutanoyl)-N-((S)-1-(4-fluorophenyl)-3-oxopropan-2-yl)octahydrocyclopenta[c]pyrrole-1-carboxamide]
